# In US9125913B2, “Bcl-2-selective apoptosis-inducing agents for the treatment of cancer and immune diseases” (AbbVie Inc., priority 2008, dated 2015):
# System: GST-Bcl-2
# Assay: TR-FRET binding assay, Bcl-2
# Settings: TR-FRET Ki values
# In short: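 Compounds serially diluted in DMSO from 50 μM (2× starting concentration, 10% DMSO), mixed with GST-tagged protein, F-Bak peptide probe and Tb-labeled antibody, incubated 3 h at room temperature.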
row,Structure (SMILES),Binding selectivity ratio (Bcl-XL Ki/Bcl-2 Ki)
1,"CC1(C)CC(c2ccc(Cl)cc2)=C(CN2CCN(c3ccc(C(=O)NS(=O)(=O)c4cnc(OCC5(F)CCOCC5)c(Cl)c4)c(Oc4cccc5[nH]ncc45)c3)CC2)CO1 [EXAMPLE 465, N-({5-chloro-6-[(4-fluorotetrahydro-2H-pyran-4-yl)methoxy]pyridin-3-yl}sulfonyl)-4-(4-{[4-(4-chlorophenyl)-6,6-dimethyl-5,6-dihydro-2H-pyran-3-yl]methyl}piperazin-1-yl)-2-(1H-indazol-4-yloxy)benzamide]",1472
2,"O=C(NS(=O)(=O)c1ccc(NCC2CCOCC2)c([N+](=O)[O-])c1)c1ccc(N2CCN(Cc3ccccc3-c3ccc(Cl)cc3)CC2)cc1Oc1ccccc1 [Example 1, 4-{4-[(4′-chloro-1,1′-biphenyl-2-yl)methyl]piperazin-1-yl}-N-({3-nitro-4-[(tetrahydro-2H-pyran-4-ylmethyl)amino]phenyl}sulfonyl)-2-phenoxybenzamide]",85.4
3,"CC1(C)CCC(c2ccc(Cl)cc2)=C(CN2CCN(c3ccc(C(=O)NS(=O)(=O)c4ccc(NCCCN5CCOCC5)c([N+](=O)[O-])c4)c(Oc4ccccc4)c3)CC2)C1 [Example 19, 4-(4-{[2-(4-chlorophenyl)-5,5-dimethylcyclohex-1-en-1-yl]methyl}piperazin-1-yl)-N-({4-[(3-morpholin-4-ylpropyl)amino]-3-nitrophenyl}sulfonyl)-2-phenoxybenzamide]",23.6
4,"CC1(C)CCC(CN2CCN(c3ccc(C(=O)NS(=O)(=O)c4ccc(NCCCN5CCOCC5)c([N+](=O)[O-])c4)c(Oc4ccc5[nH]ncc5c4)c3)CC2)=C(c2ccc(Cl)cc2)C1 [Example 20, 4-(4-{[2-(4-chlorophenyl)-4,4-dimethylcyclohex-1-en-1-yl]methyl}piperazin-1-yl)-2-(1H-indazol-5-yloxy)-N-({4-[(3-morpholin-4-ylpropyl)amino]-3-nitrophenyl}sulfonyl)benzamide]",32.8
5,"O=C(NS(=O)(=O)c1ccc(N2C(=O)C3CCC3C2=O)cc1)c1ccc(N2CCN(Cc3ccccc3-c3ccc(Cl)cc3)CC2)cc1Oc1ccccc1 (stereo not shown) [Example 28, 4-{4-[(4′-chloro-1,1′-biphenyl-2-yl)methyl]piperazin-1-yl}-N-{[4-(2,4-dioxo-3-azabicyclo[3.2.0]hept-3-yl)phenyl]sulfonyl}-2-phenoxybenzamide]",>19.6
6,"CC1CC(=O)NN=C1c1ccc(S(=O)(=O)NC(=O)c2ccc(N3CCN(Cc4ccccc4-c4ccc(Cl)cc4)CC3)cc2Oc2ccccc2)cc1 (stereo not shown) [Example 29, 4-{4-[(4′-chloro-1,1′-biphenyl-2-yl)methyl]piperazin-1-yl}-N-{[4-(4-methyl-6-oxo-1,4,5,6-tetrahydropyridazin-3-yl)phenyl]sulfonyl}-2-phenoxybenzamide]",>55.4
7,"CC1(C)CN(c2ccc(S(=O)(=O)NC(=O)c3ccc(N4CCN(Cc5ccccc5-c5ccc(Cl)cc5)CC4)cc3Oc3ccccc3)cc2)C1=O [Example 30, 4-{4-[(4′-chloro-1,1′-biphenyl-2-yl)methyl]piperazin-1-yl}-N-{[4-(3,3-dimethyl-2-oxoazetidin-1-yl)phenyl]sulfonyl}-2-phenoxybenzamide]",>6.4
8,"O=C(NS(=O)(=O)c1ccc(-n2ncc([N+](=O)[O-])n2)cc1)c1ccc(N2CCN(Cc3ccccc3-c3ccc(Cl)cc3)CC2)cc1Oc1ccccc1 [Example 31, 4-{4-[(4′-chloro-1,1′-biphenyl-2-yl)methyl]piperazin-1-yl}-N-{[4-(4-nitro-2H-1,2,3-triazol-2-yl)phenyl]sulfonyl}-2-phenoxybenzamide]",>18.0
9,"O=C(NS(=O)(=O)c1ccccc1OCCN1CCCCC1)c1ccc(N2CCN(Cc3ccccc3-c3ccc(Cl)cc3)CC2)cc1Oc1ccccc1 [Example 32, 4-{4-[(4′-chloro-1,1′-biphenyl-2-yl)methyl]piperazin-1-yl}-2-phenoxy-N-{[2-(2-piperidin-1-ylethoxy)phenyl]sulfonyl}benzamide]",>10.8
10,"CCN1CCCC1CNC(=O)c1cc(S(=O)(=O)NC(=O)c2ccc(N3CCN(Cc4ccccc4-c4ccc(Cl)cc4)CC3)cc2Oc2ccccc2)ccc1OC (stereo not shown) [Example 33, 4-{4-[(4′-chloro-1,1′-biphenyl-2-yl)methyl]piperazin-1-yl}-N-{[3-({[(1-ethylpyrrolidin-2-yl)methyl]amino}carbonyl)-4-methoxyphenyl]sulfonyl}-2-phenoxybenzamide]",49.9
11,"O=C(NS(=O)(=O)c1ccc(NCC2CCOCC2)c([N+](=O)[O-])c1)c1ccc(N2CCN(Cc3ccccc3-c3ccc(Cl)cc3)CC2)cc1Oc1cccc2ccccc12 [Example 34, 4-{4-[(4′-chloro-1,1′-biphenyl-2-yl)methyl]piperazin-1-yl}-2-(1-naphthyloxy)-N-({3-nitro-4-[(tetrahydro-2H-pyran-4-ylmethyl)amino]phenyl}sulfonyl)benzamide]",44.3
12,"O=C(NS(=O)(=O)c1ccc(NCCCN2CCOCC2)c([N+](=O)[O-])c1)c1ccc(N2CCN(Cc3ccccc3-c3ccc(Cl)cc3)CC2)cc1Oc1ccc2ccccc2c1 [Example 36, 4-{4-[(4′-chloro-1,1′-biphenyl-2-yl)methyl]piperazin-1-yl}-N-({4-[(3-morpholin-4-ylpropyl)amino]-3-nitrophenyl}sulfonyl)-2-(2-naphthyloxy)benzamide]",11.3
13,"O=C(NS(=O)(=O)c1ccc(NCC2CCOCC2)c(S(=O)(=O)C(F)(F)F)c1)c1ccc(N2CCN(Cc3ccccc3-c3ccc(Cl)cc3)CC2)cc1Oc1ccc2ccccc2c1 [Example 37, 4-{4-[(4′-chloro-1,1′-biphenyl-2-yl)methyl]piperazin-1-yl}-2-(2-naphthyloxy)-N-({4-[(tetrahydro-2H-pyran-4-ylmethyl)amino]-3-[(trifluoromethyl)sulfonyl]phenyl}sulfonyl)benzamide]",95.7
14,"CN(C)CCCNc1ccc(S(=O)(=O)NC(=O)c2ccc(N3CCN(Cc4ccccc4-c4ccc(Cl)cc4)CC3)cc2Oc2cccc3cnccc23)cc1[N+](=O)[O-] [Example 42, 4-{4-[(4′-chloro-1,1′-biphenyl-2-yl)methyl]piperazin-1-yl}-N-[(4-{[3-(dimethylamino)propyl]amino}-3-nitrophenyl)sulfonyl]-2-(isoquinolin-5-yloxy)benzamide]",80
15,"CN(C)CCCNc1ccc(S(=O)(=O)NC(=O)c2ccc(N3CCN(Cc4ccccc4-c4ccc(Cl)cc4)CC3)cc2Oc2ccc3cc[nH]c3c2)cc1[N+](=O)[O-] [Example 47, 4-{4-[(4′-chloro-1,1′-biphenyl-2-yl)methyl]piperazin-1-yl}-N-[(4-{[3-(dimethylamino)propyl]amino}-3-nitrophenyl)sulfonyl]-2-(1H-indol-6-yloxy)benzamide]",15.7
16,"CC1(C)CCC(c2ccc(Cl)cc2)=C(CN2CCN(c3ccc(C(=O)NS(=O)(=O)c4ccc(NCCCN5CCOCC5)c([N+](=O)[O-])c4)c(Oc4ccc5[nH]ccc5c4)c3)CC2)C1 [Example 50, 4-(4-{[2-(4-chlorophenyl)-5,5-dimethylcyclohex-1-en-1-yl]methyl}piperazin-1-yl)-2-(1H-indol-5-yloxy)-N-({4-[(3-morpholin-4-ylpropyl)amino]-3-nitrophenyl}sulfonyl)benzamide]",191.2
17,"CN(C)CCCNc1ccc(S(=O)(=O)NC(=O)c2ccc(N3CCN(CC4=C(c5ccc(Cl)cc5)CCC(C)(C)C4)CC3)cc2Oc2ccc3[nH]ccc3c2)cc1[N+](=O)[O-] [Example 51, 4-(4-{[2-(4-chlorophenyl)-5,5-dimethylcyclohex-1-en-1-yl]methyl}piperazin-1-yl)-N-[(4-{[3-(dimethylamino)propyl]amino}-3-nitrophenyl)sulfonyl]-2-(1H-indol-5-yloxy)benzamide]",62.1
18,"O=C(NS(=O)(=O)c1ccc(NCCCN2CCOCC2)c([N+](=O)[O-])c1)c1ccc(N2CCN(Cc3ccccc3-c3ccc(Cl)cc3)CC2)cc1Oc1cccc2[nH]ccc12 [Example 58, 4-{4-[(4′-chloro-1,1′-biphenyl-2-yl)methyl]piperazin-1-yl}-2-(1H-indol-4-yloxy)-N-({4-[(3-morpholin-4-ylpropyl)amino]-3-nitrophenyl}sulfonyl)benzamide]",265.5
19,"O=C(NS(=O)(=O)c1ccc(NCCCN2CCOCC2)c([N+](=O)[O-])c1)c1ccc(N2CCN(Cc3ccccc3-c3ccc(Cl)cc3)CC2)cc1Oc1ccc2[nH]ccc2c1 [Example 59, 4-{4-[(4′-chloro-1,1′-biphenyl-2-yl)methyl]piperazin-1-yl}-2-(1H-indol-5-yloxy)-N-({4-[(3-morpholin-4-ylpropyl)amino]-3-nitrophenyl}sulfonyl)benzamide]",1867.6
20,"COc1ccc(S(=O)(=O)NC(=O)c2ccc(N3CCN(Cc4ccccc4-c4ccc(Cl)cc4)CC3)cc2Oc2ccccc2)cc1 [Example 60, 4-{4-[(4′-chloro-1,1′-biphenyl-2-yl)methyl]piperazin-1-yl}-N-[(4-methoxyphenyl)sulfonyl]-2-phenoxybenzamide]",>34.9
21,"Cc1ccc(S(=O)(=O)NC(=O)c2ccc(N3CCN(Cc4ccccc4-c4ccc(Cl)cc4)CC3)cc2Oc2ccccc2)cc1 [Example 61, 4-{4-[(4′-chloro-1,1′-biphenyl-2-yl)methyl]piperazin-1-yl}-N-[(4-methylphenyl)sulfonyl]-2-phenoxybenzamide]",>12.6
22,"O=C(NS(=O)(=O)c1ccc(NCC2CCOCC2)c(S(=O)(=O)C(F)(F)F)c1)c1ccc(N2CCN(Cc3ccccc3-c3ccc(Cl)cc3)CC2)cc1Oc1ccc2[nH]ccc2c1 [Example 62, 4-{4-[(4′-chloro-1,1′-biphenyl-2-yl)methyl]piperazin-1-yl}-2-(1H-indol-5-yloxy)-N-({4-[(tetrahydro-2H-pyran-4-ylmethyl)amino]-3-[(trifluoromethyl)sulfonyl]phenyl}sulfonyl)benzamide]",162.4
